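Grown in 96-well plates, cells were treated for 48 hours with each compound at five concentrations. Insufficient inhibition: endpoint recorded as highest concentration tested. GI50 = concentration required for 50% inhibition of growth. TGI denotes the concentration required for complete inhibition of growth.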
Columns and labels:
Test in all cases: inhibition of tumour cell growth, NCI panel, 48 h
[1] = tested on: SK-MEL-5 melanoma
[2] = tested on: UACC-257 melanoma
[3] = tested on: KM12 colon
[4] = tested on: RXF 393 renal
[5] = tested on: COLO 205 colon
[6] = tested on: SNB-75 CNS
[7] = tested on: SW-620 colon
[8] = tested on: OVCAR-8 ovarian
[9] = tested on: HT29 colon
[10] = tested on: SNB-19 CNS
[11] = tested on: SK-MEL-2 melanoma
[12] = tested on: ACHN renal
[13] = tested on: MDA-MB-435
[14] = tested on: BT-549 breast
[15] = tested on: U251 CNS
[16] = tested on: UACC-62 melanoma
[17] = tested on: K-562 leukemia
[18] = tested on: OVCAR-4 ovarian
[19] = tested on: TK-10 renal
[20] = tested on: A498 renal
[21] = tested on: A549 NSCLC
[22] = tested on: LOX IMVI melanoma
[23] = tested on: SF-539 CNS
[24] = tested on: MALME-3M melanoma
[25] = tested on: HL-60(TB) leukemia
[26] = tested on: SR leukemia
[27] = tested on: NCI-H23 lung
[28] = tested on: DU-145 prostate
[29] = tested on: OVCAR-3 ovarian
[30] = tested on: HCT-15 colon
[31] = tested on: OVCAR-5 ovarian
[32] = tested on: SF-268 CNS
[33] = tested on: SF-295 CNS
[34] = tested on: NCI/ADR-RES ovarian
[35] = tested on: NCI-H522 lung
[36] = tested on: CCRF-CEM leukemia
[37] = tested on: SN12C renal
[38] = tested on: PC-3 prostate
[39] = tested on: SK-OV-3 ovarian
[40] = tested on: EKVX NSCLC
[41] = tested on: MCF7 breast
[42] = tested on: HOP-92 NSCLC
[43] = tested on: CAKI-1 renal
[44] = tested on: MDA-MB-231 breast
[45] = tested on: M14 melanoma
[46] = tested on: T-47D breast
[47] = tested on: UO-31 renal
[48] = tested on: MOLT-4 leukemia
[49] = tested on: RPMI-8226 leukemia
[50] = tested on: HCC-2998 colon
[51] = tested on: HOP-62 NSCLC
[52] = tested on: IGROV1 ovarian
[53] = tested on: HCT-116 colon
[54] = tested on: NCI-H460 lung
[55] = tested on: 786-0 renal
[56] = tested on: HS 578T breast
[57] = tested on: NCI-H226 lung

`Cc1ccc(CNc2ccc3nc(CCC4CCCCC4)[nH]c3c2)cc1` showed a GI50 [1] of 1.69 µM, a TGI [1] of 3.09 µM and a GI50 [2] of 2.37 µM. For the same compound, the TGI [2] was 6.44 µM, the GI50 [3] was 2.83 µM and the TGI [3] was 9.05 µM. The GI50 [4] was 2.06 µM, the TGI [4] was 5.38 µM and the GI50 [5] was 1.88 µM. It also gave a TGI [5] of 3.66 µM, a GI50 [6] of 1.75 µM and a TGI [6] of 5.25 µM. It also gave a GI50 [7] of 1.99 µM, a TGI [7] of 4.64 µM and a GI50 [8] of 3.21 µM. For the same compound, the TGI [8] was > 100 µM, the GI50 [9] was 1.88 µM and the TGI [9] was 5.19 µM. For the same compound, the GI50 [10] was 3.54 µM, the TGI [10] was > 100 µM and the GI50 [11] was 2.31 µM. It also gave a TGI [11] of 5.5 µM, a GI50 [12] of 3.09 µM and a TGI [12] of 9.65 µM. For the same compound, the GI50 [13] was 2.09 µM, the TGI [13] was 4.85 µM and the GI50 [14] was 2.45 µM. The TGI [14] was 7.34 µM, the GI50 [15] was 1.79 µM and the TGI [15] was 3.62 µM. For the same compound, the GI50 [16] was 1.74 µM, the TGI [16] was 3.4 µM and the GI50 [17] was 2.1 µM. For the same compound, the TGI [17] was 5.47 µM, the GI50 [18] was 3.23 µM and the TGI [18] was 18.7 µM. It also gave a GI50 [19] of 2.87 µM, a TGI [19] of 10.4 µM and a GI50 [20] of 1.44 µM. It also gave a TGI [20] of 4.32 µM, a GI50 [21] of 3.02 µM and a TGI [21] of 17.6 µM. The GI50 [22] was 1.74 µM, the TGI [22] was 3.19 µM and the GI50 [23] was 2.42 µM. For the same compound, the TGI [23] was 6.06 µM, the GI50 [24] was 1.74 µM and the TGI [24] was 4.07 µM. It also gave a GI50 [25] of 1.98 µM, a TGI [25] of 4.62 µM and a GI50 [26] of 2.91 µM. The TGI [26] was 8.74 µM, the GI50 [27] was 2.1 µM and the TGI [27] was 4.88 µM. The GI50 [28] was 3.73 µM, the TGI [28] was > 100 µM and the GI50 [29] was 3.06 µM. The TGI [29] was 11.4 µM, the GI50 [30] was 1.94 µM and the TGI [30] was 6.82 µM. It also gave a GI50 [31] of 2.52 µM, a TGI [31] of 8.18 µM and a GI50 [32] of 3.08 µM. The TGI [32] was > 100 µM, the GI50 [33] was 1.88 µM and the TGI [33] was 3.92 µM. For the same compound, the GI50 [34] was 2.69 µM, the TGI [34] was 9.51 µM and the GI50 [35] was 1.99 µM. For the same compound, the TGI [35] was 5.13 µM, the GI50 [36] was 3.29 µM and the TGI [36] was > 100 µM. It also gave a GI50 [37] of 2.77 µM, a TGI [37] of 11.4 µM and a GI50 [38] of 2.39 µM. For the same compound, the TGI [38] was 8.61 µM, the GI50 [39] was 2.17 µM and the TGI [39] was 5.44 µM. For the same compound, the GI50 [40] was 2.12 µM, the TGI [40] was 6.47 µM and the GI50 [41] was 2.14 µM. It also gave a TGI [41] of 6.24 µM, a GI50 [42] of 1.23 µM and a TGI [42] of 3.49 µM. For the same compound, the GI50 [43] was 2.67 µM, the TGI [43] was 7.03 µM and the GI50 [44] was 1.68 µM. The TGI [44] was 3.33 µM, the GI50 [45] was 1.91 µM and the TGI [45] was 3.9 µM. For the same compound, the GI50 [46] was 2.56 µM, the TGI [46] was 8.5 µM and the GI50 [47] was 1.35 µM. It also gave a TGI [47] of 3.3 µM, a GI50 [48] of 2.76 µM and a TGI [48] of 9.71 µM. For the same compound, the GI50 [49] was 2.03 µM, the TGI [49] was 4.64 µM and the GI50 [50] was 2.19 µM. It also gave a TGI [50] of 4.35 µM, a GI50 [51] of 2.08 µM and a TGI [51] of 4.83 µM. For the same compound, the GI50 [52] was 2.28 µM, the TGI [52] was 10.3 µM and the GI50 [53] was 1.95 µM. It also gave a TGI [53] of 5.05 µM, a GI50 [54] of 2.99 µM and a TGI [54] of 8.6 µM. The GI50 [55] was 2.12 µM, the TGI [55] was 4.93 µM and the GI50 [56] was 2.16 µM. For the same compound, the TGI [56] was 7.06 µM, the GI50 [57] was 1.77 µM and the TGI [57] was 3.92 µM.

Reference: PubChem BioAssay (NCI)
